Our source for the Kd values is PubChem BioAssay AID1033 (Sanford-Burnham Center for Chemical Genomics, 2008).

Active and inactive are the calls of the source. No rule for the calls is given here.

For this experiment, the target named is Chaperone protein DnaK (Escherichia coli (strain K12)) (UniProt P0A6Y8). The experiment can be described thus: binders of DnaK substrate-binding domain, biophysical, NMR, chaperone (AID 1033). The following applies: Purified DnaK SBD, NMR ligand binding.
Chaperone protein DnaK (Escherichia coli (strain K12)), sequence (P0A6Y8 whole entry, looked up, the tested form may be a part): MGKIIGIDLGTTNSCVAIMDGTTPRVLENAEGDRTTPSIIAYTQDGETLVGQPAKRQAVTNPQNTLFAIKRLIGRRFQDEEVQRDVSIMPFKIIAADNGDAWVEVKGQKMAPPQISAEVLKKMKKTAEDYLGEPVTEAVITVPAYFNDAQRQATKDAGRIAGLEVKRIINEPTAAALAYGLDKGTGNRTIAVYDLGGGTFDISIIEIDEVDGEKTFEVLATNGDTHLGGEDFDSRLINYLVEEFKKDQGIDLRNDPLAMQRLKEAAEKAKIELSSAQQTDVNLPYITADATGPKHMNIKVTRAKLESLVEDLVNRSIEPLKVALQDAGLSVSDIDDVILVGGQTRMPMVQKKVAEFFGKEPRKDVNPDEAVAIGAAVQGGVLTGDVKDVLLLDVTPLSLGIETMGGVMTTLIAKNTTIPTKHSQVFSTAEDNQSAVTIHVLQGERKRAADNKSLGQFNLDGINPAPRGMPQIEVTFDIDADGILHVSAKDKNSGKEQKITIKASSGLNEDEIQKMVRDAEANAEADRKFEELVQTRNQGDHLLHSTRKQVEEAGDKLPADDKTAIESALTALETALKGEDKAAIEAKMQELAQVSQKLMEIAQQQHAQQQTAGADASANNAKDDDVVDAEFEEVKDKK
For `N#C/C(=C\c1ccc[nH]1)S(=O)(=O)c1ccccc1`, the Kd is > 4 mM (inactive).
For `Cc1cc(SCC(=O)Nc2nccs2)nc(=O)[nH]1` the value was > 4 mM (inactive); for `Nc1ncnc(Cl)c1[N+](=O)[O-]`, > 4 mM (inactive); for `Cn1cnc2c1c(=O)[nH]c(=O)n2C`, > 4 mM (inactive).
Then `O=c1c(O)c(-c2ccccc2)oc2ccccc12`, with > 4 mM (inactive); and `c1coc(CNc2ncnc3nc[nH]c23)c1`, with > 4 mM (inactive).
For `c1cc(CNc2ccc3c(c2)OCCO3)ccn1` the value was > 4 mM (inactive); for `CN1CC(=O)Nc2ccc([N+](=O)[O-])cc2C1=O`, > 4 mM (inactive); for `OCCCc1nc2ccc(C(F)(F)F)cc2[nH]1`, > 4 mM (inactive).
As for `CC(=O)O[C@@H]1C=C[C@@]2(C)C(C[C@@H](OC(C)=O)[C@@]3(C)C4=CC(=O)O[C@@H](c5ccoc5)[C@]4(C)CCC23)C1(C)C` (stereo not given in full), the Kd was > 4 mM (inactive).
Then `O=C(O)CCS(=O)(=O)c1ccccc1`, with > 4 mM (inactive).
Then `COc1ccccc1NC(=O)c1ccc(Br)o1`, with > 4 mM (inactive); and `O=C1CCCC2C3CC(CN12)[C@@H]1CCCCN1C3` (stereo not given in full), with > 4 mM (inactive).
With `COc1cc2c(cc1OC)C1(O)C(=O)c3ccc(O)c(C(=O)O)c3OC1CO2` (stereo not given), the Kd is > 4 mM (inactive).
Then `CC(C)NC(=O)c1nc2ccccc2s1`, with > 4 mM (inactive).
Then `O=C1C2C3C=CC(O3)C2C(=O)N1c1ccccc1` (stereo not given), with > 4 mM (inactive); and `Cc1c(N=Cc2ccco2)c(=O)n(-c2ccccc2)n1C`, with > 4 mM (inactive).
For `NC(=O)C1CCN(C(=O)CN2CCc3ccccc32)CC1` the value was > 4 mM (inactive).
Take `COC(=O)c1[nH]c2ccccc2c1C(=O)OC`: the Kd was > 4 mM (inactive).
Then `O=C(Cc1c(F)cccc1Cl)Nc1ccncc1`, with > 4 mM (inactive).
`c1ccc(CNc2ncnc3nc[nH]c23)nc1`: the Kd is > 4 mM (inactive).
Then `O=C(/C=C1\SC(=O)NC1=O)NCc1ccccc1`, with > 4 mM (inactive); and `CC(=O)O[C@@H]1CC2C(C)(C)[C@@H](O)CC[C@]2(C)C2CC[C@@]3(C)[C@H](c4ccoc4)OC(=O)[C@H]4O[C@]43[C@@]21C` (stereo not given in full), with > 4 mM (inactive); and `O=C1C2C3C=CC(C3)C2C(=O)N1CCCO` (stereo not given), with > 4 mM (inactive).
For `O=C1CCC(=O)N1c1cccc([N+](=O)[O-])c1` the value was > 4 mM (inactive).
Turning to `Cc1cc2ncc(C(=O)Nc3ccccc3)c(C)n2n1`, the Kd is > 4 mM (inactive).
Then `COC(=O)Nc1c(C)n(C)n(-c2ccccc2)c1=O`, with > 4 mM (inactive); and `Nc1c(/C=C2\C=Nc3ccccc32)c(=O)nc2scnn12`, with > 4 mM (inactive).
Then `Cc1nc(-c2ccccc2)ncc1CO`, with > 4 mM (inactive).
Then `c1ccc(-c2noc(-c3ccc4c(c3)OCO4)n2)nc1`, with > 4 mM (inactive); and `O=C(O)c1cc2ccccc2s1`, with > 4 mM (inactive).
Take `O=c1c2ccccc2oc2ccccc12`: the Kd is > 4 mM (inactive).
For `O=c1ccc2cc(O)c(O)cc2o1` the value was > 4 mM (inactive); for `O=C(CSc1nnc2ccccn12)N1CCOCC1`, > 4 mM (inactive).
Then `CC(=O)NC(=S)Nc1cccc(C(=O)O)c1C`, with > 4 mM (inactive).
For the compound `COC(=O)CCC(C)[C@H]1CCC2C3C(C[C@H](O)[C@@]21C)[C@@]1(C)CC[C@@H](O)C[C@H]1C[C@H]3O` (stereo not given in full), the Kd is > 4 mM (inactive).
Take `O=C(O)c1ccc(NCc2cccnc2)cc1`: the Kd was > 4 mM (inactive).
For `O=C(O)Cc1n[nH]c(=O)c2ccccc12` the value was > 4 mM (inactive); for `CCc1cc(=O)[nH]c(SCC(=O)NCCOC)n1`, > 4 mM (inactive).
For the compound `Oc1ccc2c(c1)OCC1(O)Cc3cc(O)c(O)cc3C21` (stereo not given), the Kd was > 4 mM (inactive).
For `COc1ccc(C(O)c2nccn2C)cc1` (stereo not given), the Kd is > 4 mM (inactive).
Then `O=C(O)c1cnc2n(c1=O)CCS2`, with > 4 mM (inactive); and `O=C(O)C(CO)c1ccccc1` (stereo not given), with > 4 mM (inactive); and `CCCNC(CC(=O)Nc1cccnc1)C(=O)O` (stereo not given), with > 4 mM (inactive).
For `O=C(O)CCN1CCOCC1` the value was > 4 mM (inactive); for `O=C1C(=O)N(CN2CCN(CCO)CC2)c2ccccc21`, > 4 mM (inactive).
Then `OCc1ccc2c(c1)OCO2`, with > 4 mM (inactive).
`COc1ccc(Cc2nnc3c4cnn(C)c4ncn23)cc1`: the Kd was > 4 mM (inactive).
Then `CC(=O)NCCc1cc2ccc(C)c(C)c2[nH]c1=O`, with > 4 mM (inactive).
On to `Cc1cc(Oc2ccccc2)nc(N)n1`, for which the Kd was > 4 mM (inactive).
Then `O=c1c(-c2ccccc2)coc2cc(O)cc(O)c12`, with > 4 mM (inactive); and `CS(=O)(=O)N1CCN(c2ccccc2F)CC1`, with > 4 mM (inactive).
In the case of `c1ccc2[nH]c(-c3cscn3)nc2c1`, the Kd is > 4 mM (inactive).
Then `CON(C)C(=O)Nc1ccc(Cl)cc1`, with > 4 mM (inactive); and `COc1nc(-c2ccccc2)ccc1-c1noc(C)n1`, with > 4 mM (inactive).
For `Cc1ccc(C(=O)NCCO)c(Cl)c1` the value was > 4 mM (inactive); for `O=C(NCCO)NC(=S)c1ccccc1`, > 4 mM (inactive).
For `CCC(C)OC1CCS(=O)(=O)C1` (stereo not given), the Kd is > 4 mM (inactive).
As to `CC(=O)NS(=O)(=O)c1ccc(C)cc1`, the Kd is > 4 mM (inactive).
For `CCN1CCN(CCCNc2ncnc3nc[nH]c23)CC1` the value was > 4 mM (inactive).
For `OCCNC(=S)Nc1ccccc1` the value was > 4 mM (inactive).
Then `c1nnc2c3c4c(sc3ncn12)CCCC4`, with > 4 mM (inactive).
In the case of `COc1ccc([C@@H](C)C(=O)c2ccc(O)cc2O)cc1`, the Kd is > 4 mM (inactive).
For `Nc1ccc(-n2cccn2)cc1` the value was > 4 mM (inactive).
Then `CC(=O)O[C@@H]1c2c(ccc3ccc(=O)oc23)OC(C)(C)[C@@H]1OC(=O)CC(C)C`, with > 4 mM (inactive); and `Cc1nc2nc(COc3ccccc3)nn2c(C)c1Cl`, with > 4 mM (inactive).
Turning to `Cc1cc(C)cc(C(=O)N2CCC(C(N)=O)CC2)c1`, the Kd was > 4 mM (inactive).
As for `O=C(NCN1CCOCC1)c1cccnc1`, the Kd was > 4 mM (inactive).
Then `CC1=C(C(N)=O)C(c2cccs2)C(C(N)=O)=C(C)N1`, with > 4 mM (inactive); and `CC(=O)c1cccc(NS(=O)(=O)N2CCCCC2)c1`, with > 4 mM (inactive).
Then `Nc1cc(=O)[nH]c(SCC(=O)NC2CCCCC2)n1`, with > 4 mM (inactive).
Then `CC(C)CCCC(C)[C@H]1CCC2C3CC[C@H]4CC(=O)CC[C@]4(C)C3CC[C@@]21C` (stereo not given in full), with > 4 mM (inactive); and `O=C(O)CN1C(=O)c2cccc([N+](=O)[O-])c2C1=O`, with > 4 mM (inactive).
Consider `S=C(c1ccc(N2CCOCC2)cc1)N1CCOCC1`, for which the Kd was > 4 mM (inactive).
As to `Nc1ncnc2c1ncn2[C@@H]1O[C@H](CO)[C@@H](O)[C@H]1O`, the Kd is > 4 mM (inactive).
Turning to `NC(=O)Cn1nnc(-c2ccc(C(F)(F)F)cc2)n1`, the Kd was > 4 mM (inactive).
Then `CC1=NN(C(N)=S)C(C)(C)C1`, with > 4 mM (inactive).
Then `COC1=CC(=O)C(O)=C/C1=C\C=C\c1ccccc1`, with > 4 mM (inactive).
For `O=C1NC(=O)C2C3C=CC(O3)C12` (stereo not given) the value was > 4 mM (inactive); for `Cc1cc2c(N)cccc2nn1`, > 4 mM (inactive); for `COC(=O)c1ccccc1NC(=O)c1cc[n+]([O-])cc1`, > 4 mM (inactive).
Consider `Cc1cc(C)n(S(=O)(=O)c2ccc(C(C)(C)C)cc2)n1`, for which the Kd is > 4 mM (inactive).
For `NC1Cc2ccccc2C1` the value was > 4 mM (inactive); for `COc1ccc(-c2nnc(-c3ccc(N)cc3)o2)cc1`, > 4 mM (inactive); for `Cn1nc(C(=O)Nc2cccnc2)cc1Cl`, > 4 mM (inactive).
For `O=C1c2cccnc2C(=O)N1Cc1ccco1` the value was > 4 mM (inactive); for `O=C1C2CC=CCC2C(=O)N1c1ccccc1O` (stereo not given), > 4 mM (inactive); for `NCC1CN(Cc2ccccc2)CCO1` (stereo not given), > 4 mM (inactive).
Then `Cc1cc(CN2C(=O)c3ccccc3C2=O)on1`, with > 4 mM (inactive).
In the case of `O=C1c2ccccc2C(=O)c2c(O)c(O)cc(O)c21`, the Kd is > 4 mM (inactive).
Then `O=C1CNC(=O)/C1=C/c1ccc(O)cc1`, with > 4 mM (inactive); and `Nc1cccnc1N1CCOCC1`, with > 4 mM (inactive); and `COc1ccccc1-c1nc(-c2ccc(C)nc2OC)no1`, with > 4 mM (inactive).
For `O=C(Nc1cnccn1)c1cccnc1` the value was > 4 mM (inactive); for `Nc1nc(SCc2ccc3c(c2)OCO3)n[nH]1`, > 4 mM (inactive).
Then `O=S1(=O)CCC(Nc2ccccc2)C1` (stereo not given), with > 4 mM (inactive); and `Cc1cc(C(=O)Nc2sc(C)c(C)c2C#N)no1`, with > 4 mM (inactive); and `Cc1nnsc1-c1onc(C)c1C(=O)O`, with > 4 mM (inactive).
For `CN(C)C(=O)C12CCC(C)(C(=O)O1)C2(C)C` (stereo not given), the Kd is > 4 mM (inactive).
For `O=C(c1cnsn1)N1CCN(c2ccccn2)CC1` the value was > 4 mM (inactive).
For `CCC(C)C(NC)C(=O)O` (stereo not given) the value was > 4 mM (inactive); for `CCOC(=O)c1cnc2n(c1=O)CCS2`, > 4 mM (inactive); for `O=C(O)CNC(=O)c1ccccc1`, > 4 mM (inactive).
For `Cc1noc(C)c1C(=O)N1CCC2(CC1)OCCO2` the value was > 4 mM (inactive); for `N/N=C/c1cccnc1`, > 4 mM (inactive).

Usually Kd stands for the equilibrium constant for the complex coming apart.
